Test results as given in patent US20260373101A1, “POLYAMINATED FATTY ACIDS FOR USE AS POTENTIATORS OF ANTIBACTERIAL ACTIVITY” (priority 2023, published 2026).
≈ marks a conversion by molar mass, not a printed value.

Key:
Assay type in all cases: cell-based
E. coli ATCC28922 = assay: Intrinsic antibacterial activity, standard microdilution (CLSI); conditions: Escherichia coli, ATCC28922, 24 h
S. aureus ATCC25923 = assay: as above; conditions: Staphylococcus aureus; S. aureus ATCC25923, compound alone, 24 h, 37 °C
Method: (§1) The bacterial strains used in the examples below are the reference strains P. aeruginosa ATCC27853, E. coli ATCC25922, K. pneumoniae ATCC51296, S. aureus ATCC25923 and E. faecalis ATCC29212. The bacterial strains were previously stored in 15% (v/v) glycerol at −80 °C for cryoprotection. One colony of the fresh culture of each strain was incubated in a culture tube containing 3 ml of Mueller-Hinton broth (MH2) at 37 °C overnight with agitation. This suspension was used for inoculum preparation.
(§2) The antibacterial activity of said polyaminated fatty acid compounds was measured using a standard microdilution test based on Clinical and Laboratory Standards Institute (CLSI) guidelines. This method was slightly modified by increasing the assay volumes to 200 μl so as to improve reproducibility.
(§3) A negative control which corresponds to 2 ml of sterile culture medium and a positive control which corresponds to a mixture of 1980 μl of culture medium and 20 μl of bacterial suspension from a thawed biological strain (biological strains are stored at −80 °C in glycerol) were prepared.
(§4) The tubes were incubated in an incubator shaker “Infors” at 37 °C for 24 hours at 100 round per minute (rpm).
(§5) The polyaminated fatty acid compounds to be tested were prepared in water at a concentration of 10 mM.
(§6) The required volume of the microbial suspension to be inoculated was calculated for an optical density (OD) measured corresponding to a value equal to 0.01 in each well by using a spectrophotometer at 600 nm. In the microplate, the first row corresponded to the negative control (200 μl of sterile culture medium in each well), the second row to the positive control (seeded culture medium), the third row was loaded twice with bacterial suspension and with 8 μl of a given polyaminated fatty acid compound in each well. Subsequently, a half-fold cascade dilution was performed from this line. The first column was used as an inhibition control. A sterile filter was then placed on the microplate allowing the passage of gases but not contaminants. The microplate was incubated at 37 °C in a humid atmosphere for 24 hours. After 24 hours of incubation, an optical density measurement was performed by taking 100 μl of the bacterial suspension diluted in 900 μl of sterile culture medium.
(§7) The medium used was Mueller-Hinton medium (MH) for bacteria. All tests were performed in duplicate.
(§8) Table 1 below reports the intrinsic antibacterial activity of some polymaminated fatty acids prepared in example 1 (MIC in μM) as well as their toxicity towards eucaryotic cells (IC50 in μM).

P. aeruginosa ATCC27853 = assay: as above; conditions: Pseudomonas aeruginosa; P. aeruginosa ATCC27853, compound alone, 24 h, 37 °C
Method: as §1, §2, §3, §4, §5, §6, §7, §8

[1] = test system: Chinese hamster ovary cells (CHO-K1); assay: Toxicity on mammalian cells, WST1 assay; conditions: Cricetulus griseus; CHO-K1 cell viability, WST1, 24 h
Method: The WST1 assay was used to measure the cytotoxic activity of the polyaminated fatty acid compounds. It is a colorimetric assay that measures viability and cell proliferation rate. It is based on the cleavage of colorless tetrazolium salts WST-1 (4-[3-(4-iodophenyl)-2-(4-nitrophenyl)-2H-5-tetrazolio]-1,3-benzene disulfonate) by mitochondrial dehydrogenases into yellow formazan derivative, quantifiable by spectrophotometry at 420-480 nm.
The WST1 assay was performed on Chinese hamster ovary cells. CHO-K1 cells (ATCC, USA) were maintained in culture in “Mac Coy's 5A” medium supplemented with 10% fetal calf serum, 2 mM L-glutamine and streptomycin penicillin mixture (100 U/ml: 10 μg/ml). Incubation is carried out at 37 °C under CO2 enriched atmosphere (5% by volume) and subcultured every two days.
Cells are transferred to 96-well plates (25,000 cells/ml) in complete “Mac Coy's 5A medium”, and maintained for 24 h at 37 °C under a humid CO2-enriched atmosphere (5% by volume). Increasing concentrations of given polyaminated fatty acid compounds are added to the wells in duplicate assays and 8 growth controls containing cells in medium alone are included in each assay run. After 24 hours at 37 °C (5% CO2), the culture medium is removed, the cells are rinsed in phosphate buffer (PBS) and 50 μL of PBS containing 10% WST1 reagent is added to each well. After 20 minutes of incubation at 37 °C, the results are read by spectrophotometry at 450 nm.
The results are expressed as dose-response relationships, modeled by a non-linear regression analysis using TableCurve software. The 50% Inhibitory Concentration (IC50) represents the concentration of polyaminated fatty acid compound capable of reducing cell viability by 50%.

P. aeruginosa PA263 = assay: Potentiation of known antibiotics (MIC of antibiotic alone or with PAFA); conditions: for MIC: Pseudomonas aeruginosa, PA263, 24 h, 24 h
Method: (§9) 100 μl of a liquid culture medium is deposited in each well of a 96-well microplate, and then inoculated with the bacterial suspension of example 2.1 prepared for the positive control. The volume needed to inoculate is calculated for an OD of 0.01 which corresponds to approximately 5,106 bacteria in each well. In this plate, the first row corresponds to a negative control (200 μl of sterile culture medium in each well), the second row to a positive control (100 μl of sterile culture medium with 100 μl of the bacterial suspension), the third row contains 192 μl of culture medium and 8 μl of an antibiotic solution (10 mg/ml) to be tested in each well. Subsequently, a cascade dilution is performed from this line. Next, 10 μl of a fatty acid solution (10 μM final concentration) is added to each well of the lines. Then, 90 μl of bacterial suspension is added to lines 3 to 8. The MIC of the antibiotic tested is determined after 24 hours of incubation at 37 °C in a humid atmosphere.
(§10) The table 3 below reports the antibacterial activity (MIC in μg/mL) of a combination of some polyaminated fatty acids prepared in example 1 with various antibacterial drugs: doxycycline (DOX), tetracycline (TET), oxytetracycline (OXY) and minocycline (MINO), against various bacterial strains of P. aeruginosa (PA01, PA0509, and PA263), and of E. coli (AG-100 and AG-100A).

E. coli AG-100 = assay: as above; conditions: Escherichia coli, AG100, 24 h
Method: as §9, §10

E. coli AG-100A = assay: as above; conditions: Escherichia coli, AG100A, 24 h
Method: as §9, §10

P. aeruginosa PA0509 = assay: as above; conditions: Pseudomonas aeruginosa, PA0509, 24 h
Method: as §9, §10

P. aeruginosa PA01 = assay: as above; conditions: Pseudomonas aeruginosa, PA01, 24 h
Method: as §9, §10

[2] = MIC of antibiotic, PA263, +PAFA10 (10 μM)
[3] = MIC of antibiotic, PA263, +PAFA11 (10 μM)
[4] = MIC of antibiotic, PA263, +PAFA14 (10 μM)
[5] = MIC of antibiotic, AG-100, +PAFA10 (10 μM)
[6] = MIC of antibiotic, AG-100, +PAFA11 (10 μM)
[7] = MIC of antibiotic, AG-100, +PAFA14 (10 μM)
[8] = MIC of antibiotic, +PAFA10 (10 μM)
[9] = MIC of antibiotic, +PAFA11 (10 μM)
[10] = MIC of antibiotic, +PAFA14 (10 μM)
[11] = MIC of antibiotic, PA0509, +PAFA10 (10 μM), 24 h
[12] = MIC of antibiotic, PA0509, +PAFA11 (10 μM), 24 h
[13] = MIC of antibiotic, PA0509, +PAFA14 (10 μM), 24 h
[14] = MIC of antibiotic, PA01, +PAFA10 (10 μM)
[15] = MIC of antibiotic, PA01, +PAFA11 (10 μM)
[16] = MIC of antibiotic, PA01, +PAFA14 (10 μM)

Row | SMILES | MIC (E. coli ATCC28922) [µM] | MIC (S. aureus ATCC25923) [µM] | MIC (P. aeruginosa ATCC27853) [µM] | IC50 [1] [µM] | fold reduction in MIC (MIC alone / MIC with PAFA) (P. aeruginosa PA263; PA263, +PAFA11 (10 μM)) | MIC (P. aeruginosa PA263; [2]) [µg/mL] | MIC (P. aeruginosa PA263; [3]) [µg/mL] | MIC (P. aeruginosa PA263; [4]) [µg/mL] | MIC (P. aeruginosa PA263; PA263, Antibiotic alone) [µg/mL] | MIC (E. coli AG-100; AG-100, Antibiotic alone) [µg/mL] | MIC (E. coli AG-100; [5]) [µg/mL] | MIC (E. coli AG-100; [6]) [µg/mL] | MIC (E. coli AG-100; [7]) [µg/mL] | MIC (E. coli AG-100A; Antibiotic alone) [µg/mL] | MIC (E. coli AG-100A; [8]) [µg/mL] | MIC (E. coli AG-100A; [9]) [µg/mL] | MIC (E. coli AG-100A; [10]) [µg/mL] | MIC (P. aeruginosa PA0509) [µg/mL] | MIC (P. aeruginosa PA0509; [11]) [µg/mL] | MIC (P. aeruginosa PA0509; [12]) [µg/mL] | other results
1 | CCCCC/C=C\C/C=C\CCCCCCCC(=O)NCCCNCCCNCCCN [PAFA13] | 100 (≈ 45.1 µg/mL) | 50 (≈ 22.5 µg/mL) | 200 (≈ 90.2 µg/mL) | 465 |  |  |  |  |  |  |  |  |  |  |  |  |  |  |  |  | 
2 | CCCCCCCCCCCCCCCC(=O)NCCCNCCCN [PAFA3] | 200 (≈ 73.9 µg/mL) | > 200 | > 200 | 56 |  |  |  |  |  |  |  |  |  |  |  |  |  |  |  |  | 
3 | CN(C)[C@@H]1C(O)=C(C(N)=O)C(=O)[C@@]2(O)C(O)=C3C(=O)c4c(O)cccc4[C@@](C)(O)[C@H]3C[C@@H]12 [TET, tetracycline] |  |  |  |  | 2 | 8 | 16 | 4 | 32 | 1 | 0.5 | 0.25 | 0.008 | 1 | 0.5 | 0.5 | 0.008 | 1 | 0.5 | 0.25 | MIC (P. aeruginosa PA0509; [13]): 0.125 µg/mL; MIC (P. aeruginosa PA01; [14]): 8 µg/mL; MIC (P. aeruginosa PA01; [15]): 8 µg/mL; MIC (P. aeruginosa PA01; [16]): 2 µg/mL; MIC (P. aeruginosa PA01; PA01, Antibiotic alone): 32 µg/mL
4 | CN(C)[C@@H]1C(O)=C(C(N)=O)C(=O)[C@@]2(O)C(O)=C3C(=O)c4c(O)cccc4[C@@](C)(O)[C@H]3[C@H](O)[C@@H]12 [OXY, oxytetracycline] |  |  |  |  | 2 | 8 | 16 | 4 | 32 | 1 | 1 | 0.13 | 0.008 | 1 | 1 | 1 | 0.008 | 1 | 0.25 | 0.5 | MIC (P. aeruginosa PA0509; [13]): 0.063 µg/mL; MIC (P. aeruginosa PA01; [14]): 8 µg/mL; MIC (P. aeruginosa PA01; [15]): 8 µg/mL; MIC (P. aeruginosa PA01; [16]): 2 µg/mL; MIC (P. aeruginosa PA01; PA01, Antibiotic alone): 32 µg/mL
5 | CCCCCCCCCCCCCCCC(=O)NCCCNCCCCNCCCN [PAFA4] | > 200 | > 200 | > 200 | 268 |  |  |  |  |  |  |  |  |  |  |  |  |  |  |  |  | 
6 | CN(C)c1ccc(O)c2c1C[C@H]1C[C@H]3[C@H](N(C)C)C(O)=C(C(N)=O)C(=O)[C@@]3(O)C(O)=C1C2=O [MINO, minocycline] |  |  |  |  | 2 | 4 | 8 | 2 | 16 | 1 | 0.13 | 0.13 | 0.004 | 0.25 | 0.25 | 0.25 | 0.004 | 1 | 0.5 | 0.5 | MIC (P. aeruginosa PA0509; [13]): 0.063 µg/mL; MIC (P. aeruginosa PA01; [14]): 2 µg/mL; MIC (P. aeruginosa PA01; [15]): 4 µg/mL; MIC (P. aeruginosa PA01; [16]): 0.5 µg/mL; MIC (P. aeruginosa PA01; PA01, Antibiotic alone): 16 µg/mL
7 | CCCCCCCC/C=C\CCCCCCCC(=O)NCCCNCCCCNCCCN [PAFA1] | > 200 | > 200 | > 200 | 152 |  |  |  |  |  |  |  |  |  |  |  |  |  |  |  |  | 
8 | CCCCC/C=C\C/C=C\CCCCCCCC(=O)NCCCN [PAFA7] | 100 (≈ 33.7 µg/mL) | 50 (≈ 16.8 µg/mL) | > 200 | 168 |  |  |  |  |  |  |  |  |  |  |  |  |  |  |  |  | 
